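How tested: cells in 96-well plates exposed to compound for 48 hours at five concentrations. The concentration for 50% growth inhibition is given as GI50. TGI marks complete inhibition of growth.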
Key:
Experiment in all cases: growth of human tumour cells (NCI), 48 h
HCC-2998 colon = system: HCC-2998 colon
MDA-MB-231 breast = system: MDA-MB-231 breast
DU-145 prostate = system: DU-145 prostate
HS 578T breast = system: HS 578T breast
HCT-116 colon = system: HCT-116 colon
T-47D breast = system: T-47D breast
SN12C renal = system: SN12C renal
NCI/ADR-RES ovarian = system: NCI/ADR-RES ovarian
SK-MEL-2 melanoma = system: SK-MEL-2 melanoma
KM12 colon = system: KM12 colon
HT29 colon = system: HT29 colon
NCI-H460 lung = system: NCI-H460 lung
TK-10 renal = system: TK-10 renal
MALME-3M melanoma = system: MALME-3M melanoma
BT-549 breast = system: BT-549 breast
U251 CNS = system: U251 CNS
OVCAR-3 ovarian = system: OVCAR-3 ovarian
EKVX NSCLC = system: EKVX NSCLC
HOP-92 NSCLC = system: HOP-92 NSCLC
OVCAR-4 ovarian = system: OVCAR-4 ovarian
PC-3 prostate = system: PC-3 prostate
A498 renal = system: A498 renal
SF-295 CNS = system: SF-295 CNS
HOP-62 NSCLC = system: HOP-62 NSCLC
OVCAR-5 ovarian = system: OVCAR-5 ovarian
CCRF-CEM leukemia = system: CCRF-CEM leukemia
K-562 leukemia = system: K-562 leukemia
SNB-75 CNS = system: SNB-75 CNS
UACC-257 melanoma = system: UACC-257 melanoma
IGROV1 ovarian = system: IGROV1 ovarian
ACHN renal = system: ACHN renal
NCI-H522 lung = system: NCI-H522 lung
SF-539 CNS = system: SF-539 CNS
RXF 393 renal = system: RXF 393 renal
M14 melanoma = system: M14 melanoma
SK-OV-3 ovarian = system: SK-OV-3 ovarian
SF-268 CNS = system: SF-268 CNS
MCF7 breast = system: MCF7 breast
SK-MEL-5 melanoma = system: SK-MEL-5 melanoma
SK-MEL-28 melanoma = system: SK-MEL-28 melanoma
786-0 renal = system: 786-0 renal
UACC-62 melanoma = system: UACC-62 melanoma
NCI-H23 lung = system: NCI-H23 lung
MDA-MB-435 = system: MDA-MB-435
A549 NSCLC = system: A549 NSCLC
HCT-15 colon = system: HCT-15 colon
RPMI-8226 leukemia = system: RPMI-8226 leukemia
NCI-H226 lung = system: NCI-H226 lung
MOLT-4 leukemia = system: MOLT-4 leukemia
LOX IMVI melanoma = system: LOX IMVI melanoma
SNB-19 CNS = system: SNB-19 CNS
HL-60(TB) leukemia = system: HL-60(TB) leukemia
SW-620 colon = system: SW-620 colon
COLO 205 colon = system: COLO 205 colon
CAKI-1 renal = system: CAKI-1 renal
UO-31 renal = system: UO-31 renal

COc1cc(F)c(/C=C/c2cc(/C=C/c3cc(OC)c(OC)cc3F)n(-c3cc(F)cc(F)c3)n2)cc1OC
GI50 (HCC-2998 colon): 6.18 µM
TGI (HCC-2998 colon): 47.9 µM
GI50 (MDA-MB-231 breast): 2.62 µM
TGI (MDA-MB-231 breast): 8.86 µM
GI50 (DU-145 prostate): 3.68 µM
TGI (DU-145 prostate): 18.1 µM
GI50 (HS 578T breast): 4.04 µM
TGI (HS 578T breast): 18.9 µM
GI50 (HCT-116 colon): 3.13 µM
TGI (HCT-116 colon): 13.1 µM
GI50 (T-47D breast): 3.46 µM
TGI (T-47D breast): 20.7 µM
GI50 (SN12C renal): 2.04 µM
TGI (SN12C renal): 4.42 µM
GI50 (NCI/ADR-RES ovarian): 2.23 µM
TGI (NCI/ADR-RES ovarian): 5.65 µM
GI50 (SK-MEL-2 melanoma): 3.08 µM
TGI (SK-MEL-2 melanoma): 10.3 µM
GI50 (KM12 colon): 3.3 µM
TGI (KM12 colon): 12.8 µM
GI50 (HT29 colon): 2.27 µM
TGI (HT29 colon): 6.81 µM
GI50 (NCI-H460 lung): 3.43 µM
TGI (NCI-H460 lung): 12.2 µM
GI50 (TK-10 renal): 3.63 µM
TGI (TK-10 renal): 28.3 µM
GI50 (MALME-3M melanoma): 1.78 µM
TGI (MALME-3M melanoma): 4.06 µM
GI50 (BT-549 breast): 2.35 µM
TGI (BT-549 breast): 7.51 µM
GI50 (U251 CNS): 1.69 µM
TGI (U251 CNS): 3.15 µM
GI50 (OVCAR-3 ovarian): 2.47 µM
TGI (OVCAR-3 ovarian): 6.37 µM
GI50 (EKVX NSCLC): 4.94 µM
TGI (EKVX NSCLC): 55.9 µM
GI50 (HOP-92 NSCLC): 6 µM
TGI (HOP-92 NSCLC): 21.5 µM
GI50 (OVCAR-4 ovarian): 1.97 µM
TGI (OVCAR-4 ovarian): 5.75 µM
GI50 (PC-3 prostate): 2.66 µM
TGI (PC-3 prostate): 8.17 µM
GI50 (A498 renal): 14.5 µM
TGI (A498 renal): 28.8 µM
GI50 (SF-295 CNS): 2.97 µM
TGI (SF-295 CNS): 11.4 µM
GI50 (HOP-62 NSCLC): 4.01 µM
TGI (HOP-62 NSCLC): 17.1 µM
GI50 (OVCAR-5 ovarian): 2.96 µM
TGI (OVCAR-5 ovarian): 10.3 µM
GI50 (CCRF-CEM leukemia): 37.5 µM
TGI (CCRF-CEM leukemia): > 100 µM
GI50 (K-562 leukemia): 3.08 µM
TGI (K-562 leukemia): > 100 µM
GI50 (SNB-75 CNS): 2.42 µM
TGI (SNB-75 CNS): 14.4 µM
GI50 (UACC-257 melanoma): 1.48 µM
TGI (UACC-257 melanoma): 3.28 µM
GI50 (IGROV1 ovarian): 4.73 µM
TGI (IGROV1 ovarian): 21.1 µM
GI50 (ACHN renal): 18.1 µM
TGI (ACHN renal): 46.2 µM
GI50 (NCI-H522 lung): 1.91 µM
TGI (NCI-H522 lung): 5.47 µM
GI50 (SF-539 CNS): 2.7 µM
TGI (SF-539 CNS): 9.17 µM
GI50 (RXF 393 renal): 5.07 µM
TGI (RXF 393 renal): 18.4 µM
GI50 (M14 melanoma): 1.74 µM
TGI (M14 melanoma): 3.53 µM
GI50 (SK-OV-3 ovarian): 19.6 µM
TGI (SK-OV-3 ovarian): 41.9 µM
GI50 (SF-268 CNS): 3.15 µM
TGI (SF-268 CNS): 13.6 µM
GI50 (MCF7 breast): 2.99 µM
TGI (MCF7 breast): 17.3 µM
GI50 (SK-MEL-5 melanoma): 2.84 µM
TGI (SK-MEL-5 melanoma): 9.38 µM
GI50 (SK-MEL-28 melanoma): 2.36 µM
TGI (SK-MEL-28 melanoma): 5.75 µM
GI50 (786-0 renal): 1.63 µM
TGI (786-0 renal): 3.22 µM
GI50 (UACC-62 melanoma): 1.65 µM
TGI (UACC-62 melanoma): 3.32 µM
GI50 (NCI-H23 lung): 2.53 µM
TGI (NCI-H23 lung): 7.15 µM
GI50 (MDA-MB-435): 2.03 µM
TGI (MDA-MB-435): 4.63 µM
GI50 (A549 NSCLC): 3.29 µM
TGI (A549 NSCLC): 11.4 µM
GI50 (HCT-15 colon): 2.84 µM
TGI (HCT-15 colon): 9.05 µM
GI50 (RPMI-8226 leukemia): 3.75 µM
TGI (RPMI-8226 leukemia): 41.4 µM
GI50 (NCI-H226 lung): 14.8 µM
TGI (NCI-H226 lung): 43.6 µM
GI50 (MOLT-4 leukemia): 6.64 µM
TGI (MOLT-4 leukemia): > 100 µM
GI50 (LOX IMVI melanoma): 2.62 µM
TGI (LOX IMVI melanoma): 8.3 µM
GI50 (SNB-19 CNS): 2.37 µM
TGI (SNB-19 CNS): 5.52 µM
GI50 (HL-60(TB) leukemia): > 100 µM
TGI (HL-60(TB) leukemia): > 100 µM
GI50 (SW-620 colon): 2.44 µM
TGI (SW-620 colon): 5.86 µM
GI50 (COLO 205 colon): 3.95 µM
TGI (COLO 205 colon): 26.8 µM
GI50 (CAKI-1 renal): 12.8 µM
TGI (CAKI-1 renal): 34.4 µM
GI50 (UO-31 renal): 14.1 µM
TGI (UO-31 renal): 34.4 µM

— PubChem BioAssay (NCI)
